In ChEMBL document CHEMBL5150014, “Discovery and Development of Dolastatin 10-Derived Antibody Drug Conjugate Anticancer Drugs” (J Nat Prod, 2022):
Starred links: 1 amine or outer side, 2 acyl side, 3 side chain; linkers in the order of their positions; H or OH if unused. Non-standard residues stand in square brackets, D forms with d. Residues, ends and D or L forms follow the SMILES beside them. *: point of attachment. Dolaproine(4S-N3) = CO[C@H]([C@@H](C)C(=O)[*:2])[C@@H]1C[C@H](N=[N+]=[N-])CN1[*:1]; NMeVal(N-(CH2)3COOH) = CC(C)[C@@H](C(=O)*)N(C)CCCC(=O)O; Dolaproine = CO[C@@H]([C@@H]1CCCN1)[C@@H](C)C(=O)O; Abu(3S-N3) = C[C@H](N=[N+]=[N-])[C@H](N)C(=O)O; X6 = C/C(=N\OCC(=O)*)c1ccc(C[C@H](N)C(=O)O)cc1; Dil = CC[C@H](C)[C@H](NC)[C@@H](CC(=O)O)OC; NMe2Val = CC(C)[C@@H](C(=O)*)N(C)C; Oxazinan2yl(1,2) = C1CCN(*)OC1; X4 = C1=C[C@H]2CC[C@@H]1N(*)O2; NMeV = CN[C@H](C(=O)O)C(C)C; NHOH = ON*

How the values were obtained:
[1] = system: SK-BR-3; experiment: Cytotoxicity against human SK-BR-3 cells assessed as cell growth inhibition incubated for 72 hrs by CellTiter-Glo assay; type: functional
[2] = system: HT-29; experiment: Cytotoxicity against human HT-29 cells assessed as cell growth inhibition; type: functional, cell-based
[3] = system: MOLM-13; experiment: Cytotoxicity against human MOLM-13 cells assessed as cell growth inhibition; type: functional, cell-based
[4] = system: KARPAS-299; experiment: Cytotoxicity against human KARPAS-299 cells assessed as reduction in cell viability incubated for 5 days by Presto blue dye based assay; type: functional; conditions: KARPAS-299, 120 h
[5] = system: L1210; experiment: Cytotoxicity against mouse L1210 cells assessed as cell growth inhibition measured after 24 hrs; type: functional, cell-based; conditions: L1210, 24 h
[6] = system: BT-474; experiment: Anticancer activity against human BT-474 assessed as cell growth inhibition incubated for 4 days by WST-8 assay; type: functional; conditions: BT-474, 96 h, time 4 day
[7] = system: H3396; experiment: Cytotoxicity against human H3396 cells assessed as cell growth inhibition measured after 96 hrs by resazurin dye based assay; type: functional
[8] = system: HCT-116; experiment: Cytotoxicity against human HCT-116 cells assessed as cell growth inhibition measured after 96 hrs by resazurin dye based assay; type: functional

## CC[C@H](C)[C@@H]([C@@H](CC(=O)N1[C@H]2C[C@H]2C[C@H]1[C@H](OC)[C@@H](C)C(=O)N[C@@H](Cc1ccccc1)C(=O)O)OC)N(C)C(=O)[C@@H](NC(=O)[C@@H](NC)C(C)C)C(C)C (HELM PEPTIDE1{[meV].V.[CC[C@H](C)[C@@H]([C@@H](CC(=O)[*:2])OC)N(C)[*:1]].[CO[C@H]([C@@H](C)C(=O)[*:2])[C@@H]1C[C@@H]2C[C@@H]2N1[*:1]].F}$$$$V2.0)
[1]
  GI50: 1.11 nM

## CC[C@H](C)[C@@H]([C@@H](CC(=O)N1CCC[C@H]1[C@H](OC)[C@@H](C)C(=O)NC1(C(=O)N2CCCCO2)C[C@@H]1c1ccccc1)OC)N(C)C(=O)[C@@H](NC(=O)[C@H](C(C)C)N(C)C)C(C)C (stereo partly drawn)
[2]
  IC50: 0.5 nM

## CC[C@H](C)[C@@H]([C@@H](CC(=O)N1CCC[C@H]1[C@H](OC)[C@@H](C)C(=O)N[C@@H](Cc1c[nH]c2ccccc12)C(N)=O)OC)N(C)C(=O)[C@@H](NC(=O)[C@H](C(C)C)N(C)CCCC(=O)O)C(C)C ({NMeVal(N-(CH2)3COOH)}-V[Dil][Dolaproine]W-NH2)
[2]
  IC50: 16 nM

## CC[C@H](C)[C@@H]([C@@H](CC(=O)N1CCC[C@H]1[C@H](OC)[C@@H](C)C(=O)N[C@@H](CC(C)C)C(=O)NO)OC)N(C)C(=O)[C@@H](NC(=O)[C@H](C(C)C)N(C)C)C(C)C (NMe2Val-V[Dil][Dolaproine]L-{NHOH})
[1]
  GI50: 3 nM

## CC[C@H](C)[C@@H]([C@@H](CC(=O)N1CCC[C@H]1[C@H](OC)[C@@H](C)C(=O)N[C@@H](Cc1ccccc1)C(=O)N1O[C@H]2C=C[C@@H]1CC2)OC)N(C)C(=O)[C@@H](NC(=O)[C@H](C(C)C)N(C)C)C(C)C (NMe2Val-V[Dil][Dolaproine]F-X4)
[2]
  IC50: 0.5 nM

## CC[C@H](C)[C@@H]([C@@H](CC(=O)N1C[C@@H](N=[N+]=[N-])C[C@H]1[C@H](OC)[C@@H](C)C(=O)N[C@@H](Cc1ccccc1)C(=O)OC)OC)N(C)C(=O)[C@@H](NC(=O)[C@@H](NC)C(C)C)[C@H](C)N=[N+]=[N-] (H-[NMeV][Abu(3S-N3)][Dil][Dolaproine(4S-N3)]F-OMe)
[3]
  GI50: 0.279 nM

## CC[C@H](C)[C@@H]([C@@H](CC(=O)N1C[C@@H](N=[N+]=[N-])C[C@H]1[C@H](OC)[C@@H](C)C(=O)N[C@@H](Cc1ccccc1)C(=O)OC)OC)N(C)C(=O)[C@@H](NC(=O)[C@@H](NC)C(C)C)C(C)C (H-[NMeV]V[Dil][Dolaproine(4S-N3)]F-OMe)
[3]
  GI50: 0.224 nM

## CC[C@H](C)[C@@H]([C@@H](CC(=O)N1CCC[C@H]1[C@H](OC)[C@@H](C)C(=O)N[C@@H](Cc1ccccc1)C(=O)O)OC)N(C)C(=O)[C@@H](NC(=O)[C@H](C(C)C)N(C)C(=O)CO/N=C(\C)c1ccc(C[C@H](N)C(=O)O)cc1)[C@H](C)N=[N+]=[N-] (X6-[NMeV][Abu(3S-N3)][Dil][Dolaproine]F-OH)
[4]
  IC50: 217 nM

## CC[C@H](C)[C@@H]([C@@H](CC(=O)N1CCC[C@H]1[C@H](OC)[C@@H](C)C(=O)N[C@@H](Cc1c[nH]c2ccccc12)C(=O)N1CCCCO1)OC)N(C)C(=O)[C@@H](NC(=O)[C@H](C(C)C)N(C)C)C(C)C (NMe2Val-V[Dil][Dolaproine]W-{Oxazinan2yl(1,2)})
[2]
  IC50: 0.5 nM

## CC[C@H](C)[C@@H]([C@@H](CC(=O)N1C[C@@H](N=[N+]=[N-])C[C@H]1[C@H](OC)[C@@H](C)C(=O)N[C@@H](Cc1ccccc1)C(=O)OC)OC)N(C)C(=O)[C@@H](NC(=O)[C@H](C(C)C)N(C)C)[C@H](C)N=[N+]=[N-]
[3]
  GI50: 0.057 nM

## CC[C@H](C)[C@@H]([C@@H](CC(=O)N1CCC[C@H]1[C@H](OC)[C@@H](C)C(=O)N[C@H](/C=C/c1ccccc1)Cc1ccccc1)OC)N(C)C(=O)[C@@H](NC(=O)[C@H](C(C)C)N(C)CCCC(=O)O)C(C)C
[2]
  IC50: 0.3 nM

## CC[C@H](C)[C@@H]1[C@H](OC)CC(=O)N2C[C@H](C[C@H]2[C@H](OC)[C@@H](C)C(=O)N[C@@H](Cc2ccccc2)C(=O)OC)NC(=O)CCCC(=O)N[C@@H](C)[C@H](NC(=O)[C@H](NC)C(C)C)C(=O)N1C
[3]
  IC50: > 1000 nM

## CC[C@H](C)[C@@H]([C@@H](CC(=O)N1CCC[C@H]1/C=C(\C)C(=O)N[C@@H](Cc1ccccc1)c1nccs1)OC)N(C)C(=O)[C@@H](NC(=O)[C@H](C(C)C)N(C)C)C(C)C
[5]
  IC50: > 10000 nM

## CC[C@H](C)[C@@H]([C@@H](CC(=O)N1CC(=O)C[C@H]1[C@H](OC)[C@@H](C)C(=O)NCCc1ccccc1)OC)N(C)C(=O)[C@@H](NC(=O)[C@H](C(C)C)N(C)C)C(C)C
[6]
  GI50: 5.23 nM

## CC[C@H](C)[C@@H]([C@@H](CC(=O)N1CCC[C@H]1[C@H](OC)[C@@H](C)C(=O)N[C@@H](Cc1ccccc1)c1nnc(-c2ccccc2)o1)OC)N(C)C(=O)[C@@H](NC(=O)[C@H](C(C)C)N(C)CCCC(=O)O)C(C)C
[2]
  IC50: 0.1 nM

## CC[C@H](C)[C@@H]([C@@H](CC(=O)N1CCC[C@H]1[C@H](OC)[C@@H](C)C(=O)N[C@@H](Cc1ccccc1)c1nn[nH]n1)OC)N(C)C(=O)[C@@H](NC(=O)[C@H](C(C)C)N(C)C)C(C)C
[7]
  GI50: 0.09 nM
[8]
  GI50: 6 nM

## CC[C@H](C)[C@@H]([C@@H](CC(=O)N1C[C@@H](F)C[C@H]1[C@H](OC)[C@@H](C)C(=O)N[C@@H](Cc1ccccc1)C(=O)O)OC)N(C)C(=O)[C@@H](NC(=O)[C@@H](NC)C(C)C)C(C)C (HELM PEPTIDE1{[meV].V.[CC[C@H](C)[C@@H]([C@@H](CC(=O)[*:2])OC)N(C)[*:1]].[CO[C@H]([C@@H](C)C(=O)[*:2])[C@@H]1C[C@H](F)CN1[*:1]].F}$$$$V2.0)
[1]
  GI50: 81.7 nM
